In the supplement of paper PMC13380429:

How the values were obtained:
A549-ACE2 [1] = assay: phospholipidosis EC50; higher = less potent phospholipidosis inducer
Caco-2 [2] = assay: cell viability relative to DMSO; higher = less toxic; details: 72 h
U2OS [3] = assay: as above; details: 72 h
Vero E6 [4] = assay: as above; details: 72 h
Calu-3 [5] = assay: as above; details: 72 h
HepG2 [6] = assay: as above; details: 72 h
A549-ACE2 [7] = assay: drug-induced phospholipidosis relative to tamoxifen; higher = more phospholipidosis
[8] = tested on: A549-ACE2 infected with SARS-CoV-2; assay: morphology score (similarity to uninfected cells); higher = more like uninfected cells; details: 24 h
Caco-2 [9] = assay: drug sensitivity score (DSS) for viability; higher = more toxic; extreme values may be limits of the assay; details: 72 h
U2OS [10] = assay: as above; details: 72 h
Vero E6 [11] = assay: as above; details: 72 h
Calu-3 [12] = assay: as above; details: 72 h
HepG2 [13] = assay: as above; details: 72 h
[14] = tested on: A549-ACE2 infected with SARS-CoV-2; assay: SARS-CoV-2 infection rate relative to DMSO; higher = more infection; details: 24 h
Vero E6 [15] = assay: relative viability EC50 (midpoint between 100% and the lowest measured viability); higher = less toxic; details: 72 h
Calu-3 [16] = assay: as above; details: 72 h
HepG2 [17] = assay: as above; details: 72 h
[18] = tested on: A549-ACE2 infected with SARS-CoV-2; assay: cell count relative to DMSO; higher = less toxic; details: 24 h
Caco-2 [19] = assay: relative viability EC50 (midpoint between 100% and the lowest measured viability); higher = less toxic; details: 72 h
U2OS [20] = assay: as above; details: 72 h

CCN(CC)CC1CCN(c2ncc3ncnc(Nc4ccc(F)c(Cl)c4)c3n2)CC1 [BIBU-1361]
Details | SARS-CoV-2 infection rate [%] | cell count [%] | cell viability [%] | morphology score | phospholipidosis EC50 [nM]
A549-ACE2 [1], 24 h | – | – | – | – | 3200
A549-ACE2 [1], 48 h | – | – | – | – | 3880
A549-ACE2 [1], 72 h | – | – | – | – | 3900
Caco-2 [2], 1 nM | – | – | 98 | – | –
Caco-2 [2], 10 nM | – | – | 85.1 | – | –
Caco-2 [2], 100 nM | – | – | 103 | – | –
Caco-2 [2], 1000 nM | – | – | 74.1 | – | –
Caco-2 [2], 10000 nM | – | – | 50.3 | – | –
Calu-3 [5], 1 nM | – | – | 100 | – | –
Calu-3 [5], 10 nM | – | – | 100 | – | –
Calu-3 [5], 100 nM | – | – | 90.7 | – | –
Calu-3 [5], 1000 nM | – | – | 56.7 | – | –
Calu-3 [5], 10000 nM | – | – | 8.7 | – | –
HepG2 [6], 1 nM | – | – | 100 | – | –
HepG2 [6], 10 nM | – | – | 100 | – | –
HepG2 [6], 100 nM | – | – | 106 | – | –
HepG2 [6], 1000 nM | – | – | 90 | – | –
HepG2 [6], 10000 nM | – | – | 40.4 | – | –
U2OS [3], 1 nM | – | – | 100 | – | –
U2OS [3], 10 nM | – | – | 104 | – | –
U2OS [3], 100 nM | – | – | 101 | – | –
U2OS [3], 1000 nM | – | – | 96.6 | – | –
U2OS [3], 10000 nM | – | – | 57.3 | – | –
Vero E6 [4], 1 nM | – | – | 97.3 | – | –
Vero E6 [4], 10 nM | – | – | 96.4 | – | –
Vero E6 [4], 100 nM | – | – | 93.1 | – | –
Vero E6 [4], 1000 nM | – | – | 63.2 | – | –
Vero E6 [4], 10000 nM | – | – | 42.9 | – | –
[8], 0.3 µM | – | – | – | 0.01 | –
[8], 3 µM | – | – | – | 0.87 | –
[8], 10 µM | – | – | – | 0.28 | –
[8], 30 µM | – | – | – | -0.37 | –
[14], 0.3 µM | 98 | – | – | – | –
[14], 3 µM | 26 | – | – | – | –
[14], 10 µM | 27 | – | – | – | –
[14], 30 µM | 90 | – | – | – | –
[18], 0.3 µM | – | 105 | – | – | –
[18], 3 µM | – | 117 | – | – | –
[18], 10 µM | – | 122 | – | – | –
[18], 30 µM | – | 72 | – | – | –

drug-induced phospholipidosis [%], A549-ACE2 [7]
Details | 0.3 µM | 0.833333 µM | 3.33333 µM | 6.66667 µM | 10 µM | 30 µM
24 h | 2.83 | 15.5 | 75.3 | 121 | 120 | 99.8
48 h | 4.06 | 11.5 | 65.6 | 111 | 126 | –
72 h | 4.98 | 9.71 | 51.2 | 111 | 123 | –

Details | drug sensitivity score | relative viability EC50 [nM]
Caco-2 [9] | 5.9 | –
Calu-3 [12] | 10.1 | –
Calu-3 [16] | – | 1020
HepG2 [13] | 4.9 | –
HepG2 [17] | – | 1890
U2OS [10] | 2.7 | –
Vero E6 [11] | 7.8 | –
Vero E6 [15] | – | 573

Cc1ccc(C(=O)Nc2cccc(C(F)(F)F)c2)cc1Nc1nc(-c2cccnc2)nc2c1cnn2C [NVP-BHG712]
Details | SARS-CoV-2 infection rate [%] | cell count [%] | cell viability [%] | morphology score | phospholipidosis EC50 [nM]
A549-ACE2 [1], 24 h | – | – | – | – | 1650
A549-ACE2 [1], 48 h | – | – | – | – | 2210
A549-ACE2 [1], 72 h | – | – | – | – | 3750
Caco-2 [2], 1 nM | – | – | 93.9 | – | –
Caco-2 [2], 10 nM | – | – | 93.5 | – | –
Caco-2 [2], 100 nM | – | – | 101 | – | –
Caco-2 [2], 1000 nM | – | – | 96.6 | – | –
Caco-2 [2], 10000 nM | – | – | 107 | – | –
Calu-3 [5], 1 nM | – | – | 100 | – | –
Calu-3 [5], 10 nM | – | – | 95.2 | – | –
Calu-3 [5], 100 nM | – | – | 96.3 | – | –
Calu-3 [5], 1000 nM | – | – | 108 | – | –
Calu-3 [5], 10000 nM | – | – | 102 | – | –
HepG2 [6], 1 nM | – | – | 117 | – | –
HepG2 [6], 10 nM | – | – | 104 | – | –
HepG2 [6], 100 nM | – | – | 96.5 | – | –
HepG2 [6], 1000 nM | – | – | 48.6 | – | –
HepG2 [6], 10000 nM | – | – | 74.1 | – | –
U2OS [3], 1 nM | – | – | 95.7 | – | –
U2OS [3], 10 nM | – | – | 94.3 | – | –
U2OS [3], 100 nM | – | – | 109 | – | –
U2OS [3], 1000 nM | – | – | 95.5 | – | –
U2OS [3], 10000 nM | – | – | 105 | – | –
Vero E6 [4], 1 nM | – | – | 96.5 | – | –
Vero E6 [4], 10 nM | – | – | 102 | – | –
Vero E6 [4], 100 nM | – | – | 98.1 | – | –
Vero E6 [4], 1000 nM | – | – | 109 | – | –
Vero E6 [4], 10000 nM | – | – | 108 | – | –
[8], 0.3 µM | – | – | – | -0.1 | –
[8], 3 µM | – | – | – | 0.35 | –
[8], 10 µM | – | – | – | 0.14 | –
[8], 30 µM | – | – | – | 0.25 | –
[14], 0.3 µM | 99 | – | – | – | –
[14], 3 µM | 68 | – | – | – | –
[14], 10 µM | 41 | – | – | – | –
[14], 30 µM | 84 | – | – | – | –
[18], 0.3 µM | – | 98 | – | – | –
[18], 3 µM | – | 111 | – | – | –
[18], 10 µM | – | 69 | – | – | –
[18], 30 µM | – | 93 | – | – | –

drug-induced phospholipidosis [%], A549-ACE2 [7]
Details | 0.3 µM | 0.833333 µM | 3.33333 µM | 6.66667 µM | 10 µM | 30 µM
24 h | 3.95 | 19.7 | 113 | 126 | 120 | 138
48 h | 7.5 | 21.5 | 139 | 176 | 183 | –
72 h | 7.15 | 18.8 | 137 | 208 | 244 | –

Details | drug sensitivity score | relative viability EC50 [nM]
Caco-2 [9] | 0 | –
Caco-2 [19] | – | > 10000
Calu-3 [12] | 0 | –
Calu-3 [16] | – | > 10000
HepG2 [13] | 9.9 | –
HepG2 [17] | – | 264
U2OS [10] | 0 | –
U2OS [20] | – | > 10000
Vero E6 [11] | 0 | –
Vero E6 [15] | – | > 10000
